Measurements reported in patent US3952050A, “Cyclopent [a] indene compounds” (Allen & Hanburys Limited, priority 1972, dated 1976).
Where a name gives a salt, the structure may show the parent alone.

What was measured:
Format in all cases: in vivo
[1] = Phenylquinone Writhing test (analgetic action); conditions: po
Description: (§1) Particularly preferred meanings for the groups R1 and R2 are hydrogen C1-4 alkyl, in particular methyl, or benzyl. Particularly preferred meanings for R3 are hydrogen or C1-4alkyl in particular methyl. Particularly preferred meanings for R5 and R6 are hydrogen, C1-4 alkyl substituted by C1-4 alkylamino or by C1-4 dialkylamino or by phenyl or by 4-fluorobenzoyl or in which the groups together with the adjacent nitrogen atom form a morpholino or piperidino moiety; another preferred group for R5 or R6 is carbamoyl (--CONH2). Specific preferred compounds and salts are those the preparation of which is described in the Examples. The compounds of the invention have marked analgetic activity and are devoid of respiratory depressant action. […] These characteristics are often associated with non-narcotic analgetics in man. For example, in Table I, the compound 1,2,3,3aα,8,8aα-hexahydro-N-methylcyclopent[a]inden-1α-amine, maleate (AH 9197) and the diastero-isomer 1,2,3,3aα,-8,8aα-hexahydro-N-methylcyclopent[a]inden-1β-amine maleate (AH 8538) are compared with codeine in standard pharmacological tests for evaluating analgetic action. The N-ethyl analogue of AH 9197 (N-ethyl-1,2,3,3aα,8,8aα-hexahydrocyclopent[a]inden-1α-amine) maleate (AH 9903) is also included.

Dog Tooth-pulp = Dog Tooth-pulp Stimulation test (analgetic action); conditions: Canis lupus familiaris, po, read-out: Minimum effective dose, Dog Tooth-pulp Stimulation
Description: as §1

[2] = Hot plate test (analgetic action)
Description: as §1

Compound: CN[C@H]1CC[C@@H]2c3ccccc3C[C@H]12 (relative stereo) [Ex. 1, 1,2,3,3aα,8,8aα-Hexahydro-N-methylcyclopent[a]inden-1α-amine, maleate]
- ED50 [1]: 7.4 mg/kg
- minimal effective dose (Dog Tooth-pulp): 3.7 mg/kg
- ED50 ([2]; po): 10 mg/kg
- ED50 ([2]; sc): 0.44 mg/kg

Compound: CCN[C@H]1CC[C@@H]2c3ccccc3C[C@H]12 (relative stereo) [Ex. 2, N-Ethyl-1,2,3,3aα,8,8aα-hexahydrocyclopent[a]inden-1α-amine, maleate]
- ED50 [1]: 4.6 mg/kg
- minimal effective dose (Dog Tooth-pulp): < 5 mg/kg
- ED50 ([2]; po): 9.5 mg/kg
- ED50 ([2]; sc): 2.2 mg/kg

Compound: CN[C@@H]1CC[C@@H]2c3ccccc3C[C@@H]21 (relative stereo) [Ex. 3, 1,2,3,3aα,8,8aα -Hexahydro-N-methylcyclopent[a]inden-1β-amine, maleate]
- ED50 [1]: 11.9 mg/kg
- minimal effective dose (Dog Tooth-pulp): 5 mg/kg
- ED50 ([2]; sc): 15 mg/kg

Compound: COc1ccc2c3c1O[C@H]1[C@@H](O)C=C[C@H]4[C@@H](C2)N(C)CC[C@@]341 [Codeine, codeine, reference compound]
- ED50 [1]: 5.8 mg/kg
- minimal effective dose (Dog Tooth-pulp): 3.3 mg/kg
- ED50 ([2]; po): 15.5 mg/kg
- ED50 ([2]; sc): 11.8 mg/kg
